Values of other authors, collected in PMC11187573, “Identification of SARS-CoV-2 Mpro inhibitors through deep reinforcement learning for de novo drug design and computational chemistry approaches” (RSC Medicinal Chemistry, 2024).
pIC50: −log10 of the molar value. Read-outs that look alike come from different tables or passages of the source.

Tested on: Mpro
Conditions: ML dataset, cited from earlier work
[1] = Origin COVID_Moonshot, ref COVID Moonshot

| Structure (SMILES) | pIC50 [1] | pIC50 (Origin ChEMBL, ref ChEMBL) |
| --- | --- | --- |
| O=C(Nn1nnc2ccccc21)C(Cc1cccc(Cl)c1)c1ccc(N2CCCCC2=O)cc1 (stereo not drawn) [ALP-POS-a3de0cb1-13] | 4.18 |  |
| O=C(Cc1cncc2ccccc12)Nc1cccc(Cl)c1 [PET-UNK-8922bd3c-1] | 5.17 |  |
| CN1C(=O)CC(O)(C(=O)Nc2cncc3ccccc23)c2cc(Cl)ccc21 (stereo not drawn) [MAT-POS-f9802937-2] | 4.68 |  |
| O=C(Nc1cncc2c1CNCC2)C1CCOc2ccc(Cl)cc21 (stereo not drawn) | 5.21 |  |
| Cc1cc(C)c(C)c(S(=O)(=O)N2CCN(C(=O)c3cc(=O)[nH]c4ccccc34)CC2)c1C [MAT-POS-916a2c5a-3] | 5.21 |  |
| O=C(Cc1cc(Cl)cc(Cc2ccn[nH]2)c1)Nc1cncc2ccccc12 [PET-UNK-372a2f82-1] | 5.14 |  |
| O=C(NCCc1cccc(F)c1)C(c1cccnc1)N(C(=O)c1c[nH]cn1)c1ccc(C2COC2)cc1 (stereo not drawn) [BRU-THA-92256091-80] | 4.64 |  |
| CC(C)(C)c1ccc(N(C(=O)c2cocn2)C(C(=O)NCC(=O)OCc2ccccc2)c2cccnc2)cc1 (stereo not drawn) [ALP-POS-88a7a97e-44] | 5.00 |  |
| COc1cccc(CC(=O)Nc2cncc3ccccc23)c1 [RAL-THA-2d450e86-11] | 4.52 |  |
| COc1ccc2nnn(CC(=O)N(Cc3ccccn3)c3ccc(C4CCNCC4)cc3)c2c1 [ALP-POS-c0c213c9-1] | 4.45 |  |
| O=C(NCCc1cccc(F)c1)C(c1cccnc1)N(C(=O)c1cnc[nH]1)c1ccc(OC2CCOC2)cc1 (stereo not drawn) [ALP-POS-e980f4ea-32] | 4.59 |  |
| COC(=O)c1c(C)nn(C(=O)c2cccs2)c1-c1snnc1C [LON-WEI-4d77710c-66] | 5.51 |  |
| CC(C)(C)c1ccc(N(C(=O)c2c[nH]c(=O)cn2)C(C(=O)NCCc2cccc(F)c2)c2cccnc2)cc1 (stereo not drawn) [ALP-POS-305f6ec3-33] | 4.11 |  |
| COc1cccc(N2CCN(C(=O)c3cc(=O)[nH]c4ccccc34)CC2)c1 [BEN-DND-7e92b6ca-12] | 4.87 |  |
| O=C(Cc1cc(Cl)cc(OC2CC(=O)N2)c1)Nc1cc(=O)[nH]c2ccccc12 (stereo not drawn) [MAT-POS-3b92565d-6] | 4.04 |  |
| O=C(Cc1cc(Cl)cc2c1OCC2)Nc1cncc2ccccc12 | 6.01 |  |
| COCCN1CCC(C(=O)Nc2cncc3ccccc23)c2cc(Cl)ccc21 (stereo not drawn) [RAL-THA-4aa06b95-7] | 6.25 |  |
| CCC(=O)Nc1ccc(N(Cc2cscn2)C(=O)Cn2nnc3ccccc32)cc1 [ALP-POS-87c86d55-2] | 4.45 |  |
| CCCCc1nc(-c2nccn2Cc2ccoc2)c[nH]1 [MAT-POS-ea426761-53] | 4.84 |  |
| O=C(NCCc1cccc(F)c1)C(c1cccnc1)N(C(=O)c1cocn1)c1ccc(OC2CCOC2)cc1 (stereo not drawn) [ALP-POS-ced8ea4d-32] | 5.20 |  |

| Structure (SMILES) | pIC50 [1] | pIC50 (Origin ChEMBL, ref ChEMBL) |
| --- | --- | --- |
| CC(C)(C)c1ccc(N(C(=O)c2cocn2)C(C(=O)NCc2cccnc2)c2cccnc2)cc1 (stereo not drawn) [ALP-POS-88a7a97e-4] | 4.60 |  |
| CCCC(C(=O)Nc1cnccc1C)c1cccc(Cl)c1 (stereo not drawn) | 4.94 |  |
| CC(C)(C)c1ccc(N(C(=O)c2cocn2)C(C(=O)NC2CC(F)(F)C2)c2cccnc2)cc1 (stereo not drawn) [ALP-POS-88a7a97e-39] | 5.63 |  |
| COc1ccccc1N1CCN(C(=O)c2cc(=O)[nH]c3ccccc23)CC1 [BEN-DND-7e92b6ca-13] | 4.48 |  |
| CC(C)Cn1cc(NC(=O)NCc2ccco2)c2ccccc2c1=O [LON-WEI-4d77710c-44] | 4.53 |  |
| O=C(NCCc1cccc(F)c1)C(c1cccnc1)N(C(=O)c1cocn1)c1ccccc1 (stereo not drawn) [ALP-POS-ced8ea4d-28] | 4.05 |  |
| O=C(Oc1cncc(Cl)c1)c1ccc(-c2ccc(Cl)cc2)o1 [CHEMBL222769, O=C(c1ccc(-c(cc2)ccc2Cl)o1)Oc1cc(Cl)cnc1, reference compound] |  | 7.20 |
| Cc1ccc(N(Cc2cscn2)C(=O)Cc2cncc3ccccc23)cc1 [ALP-POS-c3a96089-1] | 4.96 |  |
| Cc1ccc(CC(=O)Nc2cncc3ccccc23)cc1 [RAL-THA-2d450e86-3] | 4.23 |  |
| CC(C)(C)c1ccc(N(C(=O)c2cc(=O)[nH][nH]2)C(C(=O)NCCc2cccc(F)c2)c2cccnc2)cc1 (stereo not drawn) [ALP-POS-305f6ec3-59] | 4.40 |  |
| O=C(Cc1cc(Cl)cc(Cl)c1)Nc1cncc2ccccc12 [MAT-POS-fce787c2-2] | 5.86 |  |
| N#Cc1ccc(N(C(=O)c2ccco2)C(C(=O)NCCc2cccc(F)c2)c2cccnc2)cc1 (stereo not drawn) [ALP-POS-b0bc6a46-24] | 4.98 |  |
| CC(C)(C)c1ccc(N(C(=O)c2cocn2)C(C(=O)NC2COC2)c2cccnc2)cc1 (stereo not drawn) [ALP-POS-88a7a97e-34] | 5.39 |  |
| N#Cc1cccc(NC(=O)Nc2c[nH]c3ncccc23)c1 [DAR-DIA-23aa0b97-11] | 4.20 |  |
| Cc1ccncc1NC(=O)C(C)c1cccc(C#N)c1 (stereo not drawn) | 4.30 |  |
| CC(C)(C)c1ccc(N(C(=O)c2ccco2)C(C(=O)Nc2ccccc2)c2cccnc2)cc1 (stereo not drawn) [ALP-POS-02c6a514-56] | 4.95 |  |
| COc1ccccc1OCCNC(=O)c1cc(=O)[nH]c2cccc(C)c12 | 5.18 |  |
| Cc1ccncc1CC(=O)Nc1cccc(Cl)c1 | 4.55 |  |
| O=C(Cn1nnc2ccccc21)N(Cc1ccsc1)c1ccc(N2CCOCC2)cc1 [ALP-POS-6d04362c-4] | 4.78 |  |
| O=C(Cc1cccc(Cl)c1)Nn1cnc2ccccc21 | 5.20 |  |

| Structure (SMILES) | pIC50 [1] | pIC50 (Origin ChEMBL, ref ChEMBL) |
| --- | --- | --- |
| Cc1ccncc1NC(=O)Cc1cc(Cl)cc(NC2CCCC2O)c1 (stereo not drawn) | 4.53 |  |
| O=C(Cc1cccc(Cl)c1)Nc1cncc2c1CCC2 | 5.31 |  |
| O=C(Oc1cncc(Cl)c1)c1ccco1 [CHEMBL222840, O=C(c1ccco1)Oc1cc(Cl)cnc1, reference compound] |  | 7.22 |
| Cc1ccncc1NC(=O)Nc1cccc(Cl)c1 | 4.26 |  |
| O=C(Cc1cccc(Cl)c1)Nc1[nH]nc2cccc(F)c12 [EDJ-MED-c8e7a002-13] | 4.04 |  |
| Cc1ccc(N(C(=O)c2cocn2)C(C(=O)NCCc2cccc(F)c2)c2cccnc2)cc1 (stereo not drawn) [ALP-POS-ced8ea4d-27] | 4.30 |  |
| CN(C)c1ccc(N(Cc2cscn2)C(=O)Cn2nnc3ccccc32)cc1 [ALP-POS-87c86d55-1] | 5.02 |  |
| CNc1ccc(N(C(=O)Cn2nnc3ccccc32)c2cccc(Cl)c2)cc1 [MAT-POS-06036648-5] | 5.10 |  |
| O=C(O)c1ccc(S(=O)(=O)c2cc(Br)c(O)c(Br)c2)cc1 [CHEMBL212240] |  | 4.80 |
| CCOc1c(Cl)cccc1CC(=O)Nc1cncc2ccccc12 [MAT-POS-fce787c2-1] | 5.16 |  |
| O=C(Cc1ccc(Cl)c(Cl)c1)Nc1cncc2ccncc12 [VLA-UNK-82501c2c-2] | 5.75 |  |
| O=C(CC1(C(=O)Nc2cncc3ccccc23)CCOc2ccc(Cl)cc21)N1CCN(C2CCOC2)CC1 (stereo not drawn) [ALP-POS-5bb456a5-7] | 5.17 |  |
| Cc1ccncc1NC(=O)Cc1cc(Cl)cc(-c2cnn(C)c2C(F)F)c1 [MAT-POS-f42f3716-7] | 4.75 |  |
| Cc1ccncc1NC(=O)Cc1cc(Cl)cc(-c2ccc(C3(C)CCO3)cc2)c1 (stereo not drawn) [MAT-POS-f42f3716-5] | 4.92 |  |
| Cn1sc(=O)n(Cc2ccccc2)c1=O [CHEMBL284861, CN(C(N1Cc2ccccc2)=O)SC1=O, reference compound] |  | 6.85 |
| O=C(c1cc(=O)[nH]c2ccccc12)N1CCN(c2ccccc2F)CC1 | 4.62 |  |
| COc1cc(Cl)cc(CC(=O)Nc2cnccc2C)c1 | 4.40 |  |
| O=C(Cc1cc(Cl)cc(-c2nnc[nH]2)c1)Nc1cncc2ccccc12 [RAL-THA-1d44ff04-8] | 5.28 |  |
| Cc1ccncc1NC(=O)Cc1cc(Cl)cc(NC2CCC(F)(F)C2O)c1 (stereo not drawn) [MAT-POS-044491d2-2] | 4.61 |  |
| Cc1ccncc1C(C(=O)NCCc1cccc(F)c1)N(C(=O)c1cocn1)c1ccc(C(C)(C)C)cc1 (stereo not drawn) [ALP-POS-d0876c20-1] | 6.19 |  |
